Patent US20240208994A1, “PLASMA KALLIKREIN INHIBITORS” (Merck Sharp & Dohme LLC, priority 2021, published 2024)

How the values were obtained:
Human plasma kallikrein = target: T1, Human plasma kallikrein (Homo sapiens, UniProt P03952); assay: Plasma Kallikrein Assay; type: biochemical; conditions: purified Human plasma kallikrein 0.5 nM, substrate Acetyl-K-P-R-AFC, HEPES pH 7.4, fluorescence 405 Ex/510 Em; read-out: PKal IC50
T1 construct: yields a heavy chain (371 amino acids) and a light chain (248 amino acids); purchased Enzyme Research Laboratories
T1 sequence (P03952 391-638 limits assumed): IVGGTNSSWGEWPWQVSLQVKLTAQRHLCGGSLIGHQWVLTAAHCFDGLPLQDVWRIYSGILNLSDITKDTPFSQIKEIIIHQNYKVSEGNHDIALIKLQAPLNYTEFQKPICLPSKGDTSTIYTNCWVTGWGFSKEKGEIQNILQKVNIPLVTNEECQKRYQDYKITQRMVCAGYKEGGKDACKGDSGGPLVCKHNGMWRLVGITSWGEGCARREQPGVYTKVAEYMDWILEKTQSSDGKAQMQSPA
T1 sequence (P03952 20-390 partner limits assumed): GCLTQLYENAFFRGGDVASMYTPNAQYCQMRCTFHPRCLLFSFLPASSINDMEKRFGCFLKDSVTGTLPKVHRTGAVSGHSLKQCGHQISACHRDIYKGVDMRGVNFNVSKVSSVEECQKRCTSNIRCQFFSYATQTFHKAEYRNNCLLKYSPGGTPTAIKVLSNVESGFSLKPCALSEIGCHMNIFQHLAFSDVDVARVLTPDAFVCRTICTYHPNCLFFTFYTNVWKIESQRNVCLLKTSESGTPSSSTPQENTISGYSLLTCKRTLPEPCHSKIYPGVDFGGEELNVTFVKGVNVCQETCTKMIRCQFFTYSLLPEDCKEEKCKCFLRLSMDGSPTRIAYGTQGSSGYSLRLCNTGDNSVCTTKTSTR
Description: (§1) The effectiveness of a compound of the present invention as an inhibitor of plasma kallikrein can be determined using a relevant purified serine protease, and an appropriate synthetic substrate. The rate of hydrolysis of the chromogenic or fluorogenic substrate by the relevant serine protease was measured both in the absence and presence of compounds of the present invention. Assays were conducted at rt or at 37° C. […] A decrease in the rate of fluorescence change in the presence of inhibitor is indicative of enzyme inhibition. Such methods are known to one skilled in the art. The results of this assay are expressed as the half-maximal inhibitory concentrations (IC50), or the inhibitory constant, Ki.
Plasma kallikrein determinations were made in 50 mM HEPES buffer at pH 7.4 containing 150 mM NaCl, 5 mM CaCl2), and 0.1% PEG 8000 (polyethylene glycol: Fisher Scientific). Determinations were made using purified Human plasma kallikrein at a final concentration of 0.5 nM (Enzyme Research Laboratories) and the synthetic substrate, Acetyl-K-P-R-AFC (Sigma #C6608) at a concentration of […].
Activity assays were performed by diluting a stock solution of substrate at least tenfold to a final concentration ≤0.2 Km into a solution containing enzyme or enzyme equilibrated with inhibitor. Times required to achieve equilibration between enzyme and inhibitor were determined in control experiments. The reactions were performed under linear progress curve conditions and fluorescence increase measured at 405 Ex/510 Em nm. Values were converted to percent inhibition of the control reaction (after subtracting 100% Inhibition value). IC50 was determined by inflection point from a four parameter logistic curve fit. Ki was calculated using the Cheng Prusoff equation, Ki=IC50/(1+([S]/Km)).

human factor XIa = human factor XIa (Homo sapiens, UniProt P03951); assay: Factor XIa Assay; type: biochemical; conditions: human factor XIa 0.04 nM, 30 min pre-incubation at 25° C., substrate GPR-AFC, pH 7.4, 60 min incubation; read-out: FXIa IC50
Sequence of human factor XIa (P03951 388-625 limits assumed): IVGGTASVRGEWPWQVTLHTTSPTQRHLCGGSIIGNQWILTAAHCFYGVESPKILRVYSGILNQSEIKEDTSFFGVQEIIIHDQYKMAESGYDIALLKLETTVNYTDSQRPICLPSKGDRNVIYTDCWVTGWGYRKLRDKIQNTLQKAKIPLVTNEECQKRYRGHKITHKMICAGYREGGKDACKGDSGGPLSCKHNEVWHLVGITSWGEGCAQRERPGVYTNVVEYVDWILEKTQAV
Sequence of human factor XIa (P03951 19-387 partner limits assumed): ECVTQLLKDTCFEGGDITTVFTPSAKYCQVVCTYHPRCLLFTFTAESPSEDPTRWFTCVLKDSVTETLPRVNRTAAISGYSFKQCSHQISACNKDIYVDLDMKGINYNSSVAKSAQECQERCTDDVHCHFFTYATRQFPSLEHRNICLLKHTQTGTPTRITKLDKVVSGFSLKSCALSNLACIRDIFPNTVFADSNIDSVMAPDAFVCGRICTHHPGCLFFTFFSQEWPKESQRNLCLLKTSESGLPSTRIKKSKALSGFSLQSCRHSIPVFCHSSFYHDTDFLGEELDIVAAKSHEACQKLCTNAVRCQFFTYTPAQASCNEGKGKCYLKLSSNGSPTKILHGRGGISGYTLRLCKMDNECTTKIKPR
Description: as §1, with “Coagulation factor XIa” for “plasma kallikrein”
Compounds were pre-incubated for 30 min at 25° C. with human (0.04 nM) factor XIa in 50 mM HEPES buffer with 150 mM sodium chloride, 5 mM calcium chloride, 0.1% PEG 8000, pH 7.4. factor XIa enzymatic activity was determined by addition of the substrate glycine-proline-arginine-7-amido-4-trifluoromethylcoumarin (GPR-AFC) and measurement of the fluorescence at 400/505 nm after a 60 min incubation at 25° C. The % inhibition for each data point was calculated from the data and analyzed using the log (inhibitor) vs. response four parameters equation to determine the half-maximal inhibitory concentrations (IC50). The IC50 were converted to equilibrium inhibitory constants (Ki) using the Cheng-Prusoff equation.

IC50 (Human plasma kallikrein) [nM] | IC50 (human factor XIa) [nM] | SMILES
37.5 | 2710 | Nc1cc(-c2cccc(C(F)(F)F)c2)nn1CC(=O)N1CC[C@@]2(C1)OC(=O)Nc1ccc(Cl)c(F)c12 [Example 12, (R)-1′-(2-(5-Amino-3-(3-(trifluoromethyl)phenyl)-1H-pyrazol-1-yl)acetyl)-6-chloro-5-fluorospiro[benzo[d][1,3]oxazine-4,3′-pyrrolidin]-2(1H)-one]
38.8 | 277 | Nc1c2c(nn1CC(=O)N1CC[C@@]3(C1)OC(=O)Nc1ccc(Cl)c(F)c13)CCC2 [Example 13, (R)-1′-(2-(3-Amino-5,6-dihydrocyclopenta[c]pyrazo1-2(4H)-yl)acetyl)-6-chloro-5-fluorospiro[benzo[d] [1,3]oxazine-4,3′-pyrrolidin]-2(1H)-one]
3.3 | 29 | Nc1c2c(nn1CC(=O)N1CC[C@@]3(C1)OC(=O)Nc1ccc(Cl)c(F)c13)-c1ccccc1C2 [Example 14, (R)-1′-(2-(3-Aminoindeno[1,2-c]pyrazol-2(4H)-y1)acetyl)-6-chloro-5-fluorospiro[benzo[d] [1,3]oxazine-4,3′-pyrrolidin]-2(1H)-one]
40.6 | 100 | CC1(C)CCc2c1nn(CC(=O)N1CC[C@@]3(C1)OC(=O)Nc1ccc(Cl)c(F)c13)c2N [Example 15, (R)-1′-(2-(3-Amino-6,6-dimethyl-5,6-dihydrocyclopenta[c]pyrazo1-2(4H)-yl)acetyl)-6-chloro-5-fluorospiro[benzo[d][1,3]oxazine-4,3′-pyrrolidin]-2(1H)-one]
20.4 | 2820 | Nc1cc(-c2cccc(Cl)c2)nn1CC(=O)N1CCC[C@@]2(C1)OC(=O)Nc1ccc(Cl)c(F)c12 [Example 16, (R)-1′-(2-(5-Amino-3-(3-chlorophenyl)-1H-pyrazol-1-yl)acetyl)-6-chloro-5-fluorospiro[benzo[d][1,3]oxazine-4,3′-piperidin]-2(1H)-one]
21 | 2550 | Nc1cc(-c2ccc(F)cc2)nn1CC(=O)N1CCC[C@@]2(C1)OC(=O)Nc1ccc(Cl)c(F)c12 [Example 17, (R)-1′-(2-(5-Amino-3-(4-fluorophenyl)-1H-pyrazol-1-yl)acetyl)-6-chloro-5-fluorospiro[benzo[d][1,3]oxazine-4,3′-piperidin]-2(1H)-one]
2.4 | 88 | Nc1c2c(nn1CC(=O)N1CCC[C@@]3(C1)OC(=O)Nc1ccc(Cl)c(F)c13)-c1ccccc1C2 [Example 18, (R)-1′-(2-(3-Aminoindeno[1,2-c]pyrazol-2(4H)-yl)acetyl)-6-chloro-5-fluorospiro[benzo[d][1,3]oxazine-4,3′-piperidin]-2(1H)-one]
30.3 | 134 | Nc1c(Cl)c(-c2ccc(F)cc2F)nn1CC(=O)N1CC[C@@]2(C1)OC(=O)Nc1ccc(Cl)c(F)c12 [Example 19, (R)-1′-(2-(5-Amino-4-chloro-3-(2,4-difluorophenyl)-1H-pyrazol-1-yl)acetyl)-6-chloro-5-fluorospiro[benzo[d][1.3]oxazine-4,3′-pyrrolidin]-2(1H)-one 2,2,2-trifluoroacetate]
42.3 | 214 | Nc1c(Cl)c(-c2ccccc2)nn1CC(=O)N1CC[C@@]2(C1)OC(=O)Nc1ccc(Cl)c(F)c12 [Example 20, (R)-1′-(2-(5-Amino-4-chloro-3-phenyl-1H-pyrazol-1-yl)acetyl)-6-chloro-5-fluorospiro[benzo[d][1,3]oxazine-4,3′-pyrrolidin]-2(1H)-one]
19 | 325 | Nc1c(Cl)c(-c2ccc(F)cc2F)nn1CC(=O)N1CCC[C@@]2(C1)OC(=O)Nc1ccc(Cl)c(F)c12 [Example 21, (R)-1′-(2-(5-Amino-4-chloro-3-(2,4-difluorophenyl)-1H-pyrazol-1-yl)acetyl)-6-chloro-5-fluorospiro[benzo[d][1,3]oxazine-4,3′-piperidin]-2(1H)-one]
26.3 | 516 | Nc1c(Cl)c(-c2ccccc2)nn1CC(=O)N1CCC[C@@]2(C1)OC(=O)Nc1ccc(Cl)c(F)c12 [Example 22, (R)-1′-(2-(5-Amino-4-chloro-3-phenyl-1H-pyrazol-1-yl)acetyl)-6-chloro-5-fluorospiro[benzo[d][1,3]oxazine-4,3′-piperidin]-2(1H)-one]
11.8 | 1790 | Nc1cc(-c2ccccc2)nn1CC(=O)N1CCC[C@@]2(C1)OC(=O)Nc1ccc(Cl)c(F)c12 [Example 23, (R)-1′-(2-(5-Amino-3-phenyl-1H-pyrazol-1-yl)acetyl)-6-chloro-5-fluorospiro[benzo[d][1,3]oxazine-4,3′-piperidin]-2(1H)-one]
15.4 | 114 | Nc1cc(-c2ccccc2)nn1CC(=O)N1CC[C@@]2(C1)OC(=O)Nc1ccc(Cl)c(F)c12 [Example 24, (R)-1′-(2-(5-Amino-3-phenyl-1H-pyrazol-1-yl)acetyl)-6-chloro-5-fluorospiro[benzo[d][1,3]oxazine-4,3'-pyrrolidin]-2(1H)-one]
12.7 | 367 | Nc1cc(-c2cccnn2)nn1CC(=O)N1CC[C@@]2(C1)OC(=O)Nc1ccc(Cl)c(F)c12 [Example 25, (R)-1′-(2-(5-Amino-3-(pyridazin-3-yl)-1H-pyrazol-1-yl)acetyl)-6-chloro-5-fluorospiro[benzo[d][1,3]oxazine-4,3′-pyrrolidin]-2(1H)-one]
22.2 | 484 | Nc1c2c(nn1CC(=O)N1CCC[C@@]3(C1)OC(=O)Nc1ccc(Cl)c(F)c13)CCCC2 [Example 26, (R)-1′-(2-(3-Amino-4,5,6,7-tetrahydro-2H-indazol-2-yl)acetyl)-6-chloro-5-fluorospiro[benzo[d][1,3]oxazine-4,3′-piperidin]-2(1H)-one]
25.3 | 424 | Nc1cc(-c2ncc(F)cc2F)nn1CC(=O)N1CC[C@@]2(C1)OC(=O)Nc1ccc(Cl)c(F)c12 [Example 27, (R)-1′-(2-(5-Amino-3-(3,5-difluoropyridin-2-yl)-1H-pyrazol-1-yl)acetyl)-6-chloro-5-fluorospiro[benzo[d][1,3]oxazine-4,3′-pyrrolidin]-2(1H)-one]
16.7 | 55 | Nc1cc(C2CC2)nn1CC(=O)N1CCC[C@@]2(C1)OC(=O)Nc1ccc(Cl)c(F)c12 [Example 28, (R)-1′-(2-(5-Amino-3-cyclopropyl-1H-pyrazol-1-yl)acetyl)-6-chloro-5-fluorospiro[benzo[d][1,3]oxazine-4,3′-piperidin]-2(1H)-one]
32.3 | 1250 | Nc1c(Cl)c(C2CC2)nn1CC(=O)N1CCC[C@@]2(C1)OC(=O)Nc1ccc(Cl)c(F)c12 [Example 29, (R)-1′-(2-(5-Amino-4-chloro-3-cyclopropyl-1H-pyrazol-1-yl)acetyl)-6-chloro-5-fluorospiro[benzo[d][1,3]oxazine-4,3'-piperidin]-2(1H)-one]
37.4 | 164 | Nc1c(F)c(-c2ccc(F)cc2F)nn1CC(=O)N1CCC[C@@]2(C1)OC(=O)Nc1ccc(Cl)c(F)c12 [Example 30, (R)-1′-(2-(5-Amino-3-(2,4-difluorophenyl)-4-fluoro-1H-pyrazol-1-yl)acetyl)-6-chloro-5-fluorospiro[benzo[d][1,3]oxazine-4,3'-piperidin]-2(1H)-one]
32.1 | 1830 | Nc1c(Cl)c(-c2ncc(F)cc2F)nn1CC(=O)N1CC[C@@]2(C1)OC(=O)Nc1ccc(Cl)c(F)c12 [Example 31, (R)-1′-(2-(5-Amino-4-chloro-3-(3,5-difluoropyridin-2-y1)-1H-pyrazol-1-yl)acetyl)-6-chloro-5-fluorospiro[benzo[d][1,3]oxazine-4,3′-pyrrolidin]-2(1H)-one]
5.7 | 648 | Nc1cc(-c2ncc(F)cc2F)nn1CC(=O)N1CCC[C@@]2(C1)OC(=O)Nc1ccc(Cl)c(F)c12 [Example 32, (R)-1′-(2-(5-Amino-3-(3,5-difluoropyridin-2-y1)-1H-pyrazol-1-yl)acetyl)-6-chloro-5-fluorospiro[benzo [d][1,3]oxazine-4,3′-piperidin]-2(1H)-one]
